Where a name gives a salt, the structure may show the parent alone.
molecular target: human Factor Xa (Homo sapiens, UniProt P00742); experiment: In vitro assay for inhibition of Factor Xa (2), fluorogenic assay; type: biochemical; conditions: substrate Rhodamine 110, bis-(CBZ-glycylglycyl-L-arginine amide 10 μM), Ki calculated from IC50
Procedure: In Vitro Assay for Inhibition of Factor Xa (2)
All other compounds of the present invention were tested for their Factor Xa inhibitory activity as determined in vitro by their ability to inhibit human Factor Xa in a fluorogenic assay, using Rhodamine 110, bis-(CBZ-glycylglycyl-L-arginine amide as the fluorogenic substrate. Compounds were diluted from a 10 mM stock solution in dimethylsulfoxide at appropriate concentrations. Assay was performed at room temperature using buffer consisting of: 50 mM Tris-HCl, 150 mM NaCl, 5 mM CaCl2, pH 7.4. containing human Factor Xa (final conc. Of 0.0003U.ml−1). Compound and enzyme were preincubated for 15 min prior to addition of the substrate (final conc. of 10 μM). The reaction was stopped after 3 hrs with the addition of H-D-PHE-PRO-ARG-Chloromethylketone. […] To obtain IC50 values the data were analysed using ActivityBase® and XLfit®.
Calculation of Ki values:
Ki=IC50/(1+[Substrate]/Km)
The Ki value for the above assay can be obtained by dividing the IC50 value by 1.6.

Chain of human Factor Xa (P00742 235-488 limits assumed): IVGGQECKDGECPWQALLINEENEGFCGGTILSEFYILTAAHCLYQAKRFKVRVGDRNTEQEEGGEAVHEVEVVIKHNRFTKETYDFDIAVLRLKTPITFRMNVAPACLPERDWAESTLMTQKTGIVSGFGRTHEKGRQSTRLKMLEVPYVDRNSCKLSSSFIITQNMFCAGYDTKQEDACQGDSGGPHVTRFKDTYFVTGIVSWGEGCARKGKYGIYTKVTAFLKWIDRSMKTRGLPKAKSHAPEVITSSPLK
Chain of human Factor Xa (P00742 41-179 partner limits assumed): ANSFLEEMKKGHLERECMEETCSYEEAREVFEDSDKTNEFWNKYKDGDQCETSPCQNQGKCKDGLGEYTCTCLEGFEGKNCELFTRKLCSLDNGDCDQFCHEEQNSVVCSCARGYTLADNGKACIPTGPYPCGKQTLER

`Cc1cn(-c2ccc(N3CC[C@H](NS(=O)(=O)c4ccc5cc(Cl)ccc5c4)C3=O)c(F)c2)cn1` [Example 128, 6-Chloro-N-{(3S)-1-[2-fluoro-4-(4-methyl-1H-imidazol-1-yl)phenyl]-2-oxopyrrolidinyl}-2-naphthalenesulfonamide] and `Cn1ccnc1-c1ccc(N2CC[C@H](NS(=O)(=O)c3ccc4cc(Cl)ccc4c3)C2=O)c(F)c1` [Example 77, 6-Chloro-N-{(3S)-1-[2-fluoro-4-(1-methyl-1H-imidazol-2-yl)phenyl]-2-oxopyrrolidin-3-yl}naphthalene-2-sulfonamide] cannot be ordered by Ki: under 10 nM for the first, under 10 nM for the second.

`O=C1[C@@H](NS(=O)(=O)c2ccc3cc(Cl)ccc3c2)CCN1c1ccc(-c2cncc(Br)c2)cc1F` [Example 61, N-{(3S)-1-[4-(5-Bromopyridin-3-yl)-2-fluorophenyl]-2-oxopyrrolidin-3-yl}-6-chloronaphthalene-2-sulfonamide] and `O=C1[C@@H](NS(=O)(=O)c2ccc3cc(Cl)ccc3c2)CCN1c1ccc(-c2cncnc2)cc1F` [Example 63, 6-Chloro-N-[(3S)-1-(2-fluoro-4-pyrimidin-5-ylphenyl)-2-oxopyrrolidin-3-yl]naphthalene-2-sulfonamide] cannot be ordered by Ki: under 200 nM for the first, under 200 nM for the second.

`O=C1[C@@H](NS(=O)(=O)/C=C/c2ccc(Cl)s2)CCN1c1ccc([N+](=O)[O-])cc1F` [Example 95, (E)-2-(5-Chloro-2-thienyl)-N-[(3S)-1-(2-fluoro-4-nitrophenyl)-2-oxopyrrolidinyl]ethenesulfonamide] and `O=C1[C@@H](NS(=O)(=O)/C=C/c2ccc(Cl)s2)CCN1c1ccc(-c2ccccc2[N+](=O)[O-])cn1` [Example 17, (E)-2-(5-Chlorothien-2-yl)-N-{(3S)-1-[5-(2-nitrophenyl)pyridin-2-yl]-2-oxopyrrolidin-3-yl}ethenesulfonamide] cannot be ordered by Ki: under 20 nM for the first, under 10 nM for the second.

`CNS(=O)(=O)c1ccccc1-c1ccc(N2CC[C@H](NS(=O)(=O)/C=C/c3ccc(Cl)s3)C2=O)nc1` [Example 29, 2-{6-[(3S)-3-({[(E)-2-(5-Chlorothien-2-yl)ethenyl]sulfonyl}amino)-2-oxopyrrolidin-1-yl]pyridin-3-yl}-N-methylbenzenesulfonamide] and `CN(c1ccccc1-c1ccc(N2CC[C@H](NS(=O)(=O)/C=C/c3ccc(Cl)s3)C2=O)nc1)S(C)(=O)=O` [Example 30, (E)-2-(5-Chlorothien-2-yl)-N-[(3S)-1-(5-{2-[methyl(methylsulfonyl)amino]phenyl}pyridin-2-yl)-2-oxopyrrolidin-3yl]ethenesulfonamide] cannot be ordered by Ki: under 10 nM for the first, under 10 nM for the second.

`CS(=O)(=O)c1ccccc1-c1ccc(N2CC[C@H](NS(=O)(=O)c3cc4ncc(Cl)cc4s3)C2=O)c(F)c1` [Example 37, 6-Chloro-N-{(3S)-1-[3-fluoro-2′-(methylsulfonyl)-1,1′-biphenyl-yl]-2-oxopyrrolidin-3-yl}thieno[3,2b]pyridine-2-sulfonamide] and `CS(=O)(=O)c1ccccc1-c1ccc(N2CC[C@H](NS(=O)(=O)c3cc4nc(Cl)ccc4s3)C2=O)c(F)c1` [Example 38, 5-Chloro-N-{(3S)-1-[3-fluoro-2′-(methylsulfonyl)-1,1′-biphenyl-4-yl]-2-oxopyrrolidin-3-yl}thieno[3,2-b]pyridine-2-sulfonamide] cannot be ordered by Ki: under 20 nM for the first, under 10 nM for the second.

`CN(C)C(=O)c1ccc(N2CC[C@H](NS(=O)(=O)c3cc4ccc(Cl)cc4s3)C2=O)c(F)c1` [Example 109, 4-((3S)-3-{[(6-Chloro-1-benzothien-2-yl)sulfonyl]amino}-2-oxopyrrolidin-1-yl)-3-fluoro-N,N-dimethylbenzamide] and `CC(=O)Nc1ccc(N2CC[C@H](NS(=O)(=O)c3cc4ccc(Cl)cc4s3)C2=O)c(F)c1` [Example 117, N-[4-((3S)-3-{[(6-Chloro-1-benzothien-2-yl)sulfonyl]amino}-2-oxopyrrolidinyl)-3-fluorophenyl]acetamide] cannot be ordered by Ki: under 10 nM for the first, under 1000 nM for the second.

`CS(=O)(=O)c1ccccc1-c1ccc(N2CC[C@H](N(CC(=O)O)S(=O)(=O)/C=C/c3ccc(Cl)s3)C2=O)c(F)c1` [Example 49] and `CS(=O)(=O)c1ccccc1-c1ccc(N2CC[C@H](N(CC(N)=O)S(=O)(=O)/C=C/c3ccc(Cl)s3)C2=O)c(F)c1` [Example 46] cannot be ordered by Ki: under 10 nM for the first, under 10 nM for the second.

`CS(=O)(=O)c1ccccc1-c1ccc(N2CC[C@H](NS(=O)(=O)c3cccc(CN)c3)C2=O)c(F)c1` [Example 53, 3-(Aminomethyl)-N-{(3S)-1-[3-fluoro-2′-(methylsulfonyl)-1,1′-biphenyl-4-yl]-2-oxopyrrolidin-3-yl}benzenesulfonamide] and `CS(=O)(=O)c1ccccc1-c1ccc(N2CC[C@H](NS(=O)(=O)c3ccc(C#N)cc3)C2=O)c(F)c1` [Example 34] cannot be ordered by Ki: under 20 nM for the first, under 1000 nM for the second.

`NC(=O)CN([C@H]1CCN(c2ccc(-c3ccccc3S(N)(=O)=O)cc2F)C1=O)S(=O)(=O)c1cc2ccc(Cl)cc2s1` [Example 140, 2-{(6-Chloro-benzo[b]thiophene-2-sulphonyl)-[(S)-1-(3-fluoro-2′-sulfamoyl-biphenyl-4-yl)-2-oxo-pyrrolidin-3-yl]-amino}-acetamide Formate] and `CS(=O)(=O)c1ccccc1-c1ccc(N2CC[C@H](NS(=O)(=O)c3cc4ccc(Cl)cc4s3)C2=O)c(F)c1` [Example 11, 6-Chloro-N-{(3S)-1-[3-fluoro-2′-(methylsulfonyl)-1,1′-biphenyl-4-yl]-2-oxopyrrolidin-3-yl}-1-benzothiophene-2-sulfonamide] cannot be ordered by Ki: under 10 nM for the first, under 10 nM for the second.

`Cc1ccc(-c2ccc(N3CC[C@H](NS(=O)(=O)c4ccc5cc(Cl)ccc5c4)C3=O)c(F)c2)s1` [Example 68, 6-Chloro-N-{(3S)-1-[2-fluoro-4-(5-methylthien-2-yl)phenyl]-2-oxopyrrolidin-3-yl}naphthalene-2-sulfonamide] and `O=C1[C@@H](NS(=O)(=O)c2ccc3cc(Cl)ccc3c2)CCN1c1ccc(-c2ccoc2)cc1F` [Example 65, 6-Chloro-N-{(3S)-1-[2-fluoro-4-(3-furyl)phenyl]-2-oxopyrrolidin-3-}naphthalene-2-sulfonamide] cannot be ordered by Ki: under 200 nM for the first, under 200 nM for the second.

`CC(C)N(C=O)c1ccc(N2CC[C@H](NS(=O)(=O)c3cc4ccc(Cl)cc4s3)C2=O)c(F)c1` [Example 121, 6-Chloro-N-((3S)-1-{2-fluoro-4-[formyl(isopropyl)amino]phenyl}-2-oxopyrrolidin-3-yl)-1-benzothiophene-2-sulfonamide] and `N#Cc1ccc(N2CC[C@H](NS(=O)(=O)c3cc4ccc(Cl)cc4s3)C2=O)c(F)c1` [Example 97, 6-Chloro-N-[(3S)-1-(4-cyano-2-fluorophenyl)-2-oxopyrrolidin-3-yl]-1-benzothiophene-2-sulfonamide] cannot be ordered by Ki: under 20 nM for the first, under 10 nM for the second.

`NC(=O)c1cccc(-c2ccc(N3CC[C@H](NS(=O)(=O)c4ccc5cc(Cl)ccc5c4)C3=O)c(F)c2)c1` [Example 50, 4′-[(S)-3-(6-Chloro-naphthalene-2-sulphonylamino)-2-oxo-pyrrolidin-1-yl]-3′-fluoro-biphenyl-3-carboxylic Acid Amide] and `O=C1[C@@H](NS(=O)(=O)c2ccc3cc(Cl)ccc3c2)CCN1c1ccc(-c2cccnc2)cc1F` [Example 57, 6-Chloro-N-[(3S)-1-(2-fluoro-4-pyridin-3ylphenyl)-2-oxopyrrolidin-3-yl]naphthalene-2-sulfonamide] cannot be ordered by Ki: under 10 nM for the first, under 10 nM for the second.

`N#Cc1ccc(N2CC[C@H](NS(=O)(=O)CCc3ccc(Cl)s3)C2=O)c(F)c1` [Example 99, 2-(5-Chlorothien-2-yl)-N-[(3S)-1-(4-cyano-2-fluorophenyl)-2-oxopyrrolidin-3-yl]ethanesulfonamide] and `C[N+](C)(CC(N)=O)Cc1nccn1-c1ccc(N2CC[C@H](NS(=O)(=O)CCc3ccc(Cl)s3)C2=O)c(F)c1` [Example 143, 2-Amino-N-[(1-{4-[(3S)-3-({[2-(5-chlorothien-2-yl)ethyl]sulfonyl}amino)-2-oxopyrrolidin-1-yl]-3-fluorophenyl}-1H-imidazol-2-yl)methyl]-N,N-dimethyl-2-oxoethanaminium Formate] cannot be ordered by Ki: under 200 nM for the first, under 10 nM for the second.

`CS(=O)(=O)c1ccccc1-c1ccc(N2CC[C@H](N(CCN3CCOCC3)S(=O)(=O)/C=C/c3ccc(Cl)s3)C2=O)nc1` [Example 42, (E)-2-(5-Chlorothien-2-yl)-N-((3S)-1-{5-[2-(methylsulfonyl)Phenyl]pyridin-2-yl}-2-oxopyrrolidin-3-yl)-N-(2-morpholin-4-ylethyl)ethenesulfonamide Formate Salt (1:1)] and `CC(C)(C)OC(=O)CN([C@H]1CCN(c2ccc(-c3ccccc3S(C)(=O)=O)cn2)C1=O)S(=O)(=O)/C=C/c1ccc(Cl)s1` [Example 40, tert-Butyl [{[(E)-2-(5-Chlorothien-2-yl)ethenyl]sulfonyl}((3S)-1-{5-[2-(methylsulfonyl)phenyl]pyridin-2-yl}-2-oxopyrrolidin-3-yl)amino]acetate] cannot be ordered by Ki: under 10 nM for the first, under 10 nM for the second.

`CS(=O)(=O)c1ccccc1-c1ccc(N2CC[C@H](NS(=O)(=O)c3c(Cl)sc4ccsc34)C2=O)c(F)c1` [Example 88, 2-Chloro-N-{(3S)-1-[3-fluoro-2′-(methylsulfonyl)-1,1′-biphenyl-4-yl]-2-oxopyrrolidin-3-yl}thieno[3.2-b]thiophene-3-sulfonamide] and `CN(C)c1ccc2cc(S(=O)(=O)N[C@H]3CCN(c4ccc(-c5ccccc5S(C)(=O)=O)cc4F)C3=O)ccc2c1` [Example 9, 6-(Dimethylamino)-N-{(3S)-1-[3-fluoro-2′-(methylsulfonyl)-1,1′-biphenyl-4-yl]-2-oxopyrrolidin-3-yl}naphthalene-2-sulfonamide] cannot be ordered by Ki: under 20 nM for the first, under 1000 nM for the second.
